Structures can show the parent of a compound that is named as a salt. Where two headings read alike, the source gives them in different places.
Assays:
carbonic anhydrase = carbonic anhydrase (Homo sapiens, UniProt P00918); assay: carbonic anhydrase inhibition (I50) and Ki, methods of Ponticello et al., J. Med. Chem., 30, 591 (1987); type: biochemical; details: for IC50: carbonic anhydrase inhibition
intraocular pressure = details: cited from earlier work
[1] = system: ocular hypertensive monkey; assay: drop in IOP in the ocular hypertensive monkey (Lee et al., Curr. Eye Res., 4,775-781 (1985)); type: in vivo; details: 16 hours after treatment
[2] = carbonic anhydrase, main value, read-out: Ki
[3] = value in parentheses, hi = more active component of racemic mixture, read-out: Ki (hi)

| Structure (SMILES) | IC50 (carbonic anhydrase) [nM] | Ki (carbonic anhydrase; [2]) [nM] | Ki (carbonic anhydrase; [3]) [nM] | also measured |
| --- | --- | --- | --- | --- |
| CCN[C@H]1C[C@@H](CC)S(=O)(=O)c2sc(S(N)(=O)=O)cc21 [Compound 11] | 0.8 | 1 |  |  |
| CNC(=O)Oc1ccc2c(c1)[C@]1(C)CCN(C)[C@@H]1N2C [physostigmine] |  |  |  | effect on intraocular pressure (intraocular pressure; background statement): reduce intraocular pressure |
| CCN[C@H]1C[C@H](CC)S(=O)(=O)c2sc(S(N)(=O)=O)cc21 [Compound 10] | 0.5 | 0.3 |  |  |
| CC[C@H]1C[C@H](NC)c2cc(S(N)(=O)=O)sc2S1(=O)=O (relative stereo) [Compound 4] |  | 3.6 | 1.8 |  |
| CCC[C@H]1C[C@H](NC)c2cc(S(N)(=O)=O)sc2S1(=O)=O (relative stereo) [Compound 6] |  | 2.1 | 0.85 |  |
| CC[C@@H]1C(=O)OC[C@@H]1Cc1cncn1C [pilocarpine] |  |  |  | effect on intraocular pressure (intraocular pressure; background statement): reduce intraocular pressure |
| CCCN[C@H]1C[C@H](CCC)S(=O)(=O)c2sc(S(N)(=O)=O)cc21 [Compound 3] | 0.15 | 0.23 |  |  |
| CCN[C@H]1C[C@@H](CC(C)C)S(=O)(=O)c2sc(S(N)(=O)=O)cc21 (relative stereo) [Compound 14] |  | 2.6 | 0.13 |  |
| CCC[C@H]1C[C@H](NCC)c2cc(S(N)(=O)=O)sc2S1(=O)=O.Cl [Compound 1, (S,S) (-)5,6-Dihydro-4-ethylamino-6-(n-propyl)-4H-thieno[2,3-b]thiopyran-2-sulfonamide-7,7-dioxide hydrochloride] |  |  |  | drop in IOP [1]: 11.3 mmHg |
| CC(C)(C)NC[C@H](O)COc1nsnc1N1CCOCC1 [(S)-1-tert-Butylamino[(4-morpholino-1,2,5-thiadiazol-3-yl)oxy]-2-propanol] |  |  |  | local anesthetic properties (intraocular pressure; advantage over many other β-adrenergic blocking agents, background statement): devoid of local anesthetic properties; unwanted side effects (intraocular pressure): devoid of many unwanted side effects associated with pilocarpine |
| C=CC[C@H]1C[C@H](NCC)c2cc(S(N)(=O)=O)sc2S1(=O)=O (relative stereo) [Compound 12, trans-6-Allyl-5,6-dihydro-4-ethylamino-4H-thieno[2,3-b]thiopyran-2-sulfonamide-7,7-dioxide hydrochloride] | 0.23 |  |  |  |
| CCN[C@H]1C[C@H](C)S(=O)(=O)c2sc(S(N)(=O)=O)cc21 [Compound 8] |  |  |  | drop in IOP [1]: 5.6 mmHg |
| CC[C@@H]1C[C@H](NC)c2cc(S(N)(=O)=O)sc2S1(=O)=O (relative stereo) [Compound 5] |  | 7.1 | 2.6 |  |
| C=CC[C@@H]1C[C@H](NCC)c2cc(S(N)(=O)=O)sc2S1(=O)=O [Compound 13, cis-6-Allyl-5,6-dihydro-4H-4-ethylaminothieno[2,3-b]thiopyran-2-sulfonamide-7,7-dioxide hydrochloride] | 0.21 | 0.4 |  | drop in IOP [1]: 9.8 mmHg |
| CCC[C@@H]1C[C@H](NC)c2cc(S(N)(=O)=O)sc2S1(=O)=O (relative stereo) [Compound 7] |  | 2.8 | 0.64 |  |

From patent US5091409A (priority 1990, dated 1992)
